What all share (type): in vivo
Series [1] deals with Yellow Fever Mosquito (Aedes aegypti, AEDSAE). Description: Insecticidal test for yellow fever mosquito (YFM), 96-well plate larval assay. The following applies: from 4000 ppm DMSO master solution, diluted; about 1 day-old larvae; room temperature; scored after 3 days. The gist of the method:
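Compounds from 4000 ppm DMSO master stocks (diluted with 90:10 water/acetone) dispensed into wells, then infested with ~1-day-old Aedes aegypti larvae in liver-powder water; 6 replicate plates. Lidded plates held at room temperature 3 days, then each well scored for mortality.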

In series [2] the test system is Cabbage Looper (Trichloplusia Ni, TRIPNI). Kind of series: Insecticidal test for cabbage looper (CL), 128-well diet tray assay. The following applies: Trichoplusia ni, 168 h, read-out: CL % Control (or Mortality) rating. The gist of the method: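 Second-instar larvae on artificial diet treated with 50 μg/cm^2 compound (acetone-water 90:10), dried; held 25° C., 14:10 light-dark, five to seven days. Percent mortality per well, averaged over eight wells.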

In series [3] the test system is Beet Armyworm (Spodoptera exigua, LAPHEG). Kind of series: Insecticidal test for beet armyworm (BAW), 128-well diet tray assay. The following applies: 168 h, 50 μg/cm^2 of test compound on artificial diet, second instar larvae, 25° C., five to seven days, average of eight wells, read-out: BAW % Control (or Mortality) rating. The gist of the method: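 Second-instar larvae placed on artificial diet surface-treated with 50 μg/cm^2 compound (in acetone-water), eight wells per compound. Held at 25° C, 14:10 light-dark for five to seven days; percent mortality averaged across the eight wells.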

SMILES strings stand for the structures.

For orientation: mortality means the share of the test organisms that died. On to `Cc1ccc(C(C)C)c(N2C(=O)CS/C2=N\C(=O)Nc2ccc(CCOC(=O)Nc3ccc(OC(F)(F)F)cc3)cc2)c1` [Compound A52, (Z)-4-(3-(3-(2-isopropyl-5-methylphenyl)-4-oxothiazolidin-2-ylidene)ureido)phenethyl (4-(trifluoromethoxy)phenyl)carbamate], for which the “YFM % Control (or Mortality) rating” value in series [1] is “A (80-100)”. In addition, the mortality at 50 µg/cm2 in series [2] and in series [3] was 50 to 100% throughout.

Take `Cc1ccc(C(C)C)c(N2C(=O)CS/C2=N\C(=O)NCCc2ccc(NC(=O)Oc3ccc(OC(F)(F)F)cc3)cc2)c1` [Compound A53, 4-(trifluoromethoxy)phenyl (Z)-(4-(2-(3-(3-(2-isopropyl-5-methylphenyl)-4-oxothiazolidin-2-ylidene)ureido)ethyl)phenyl)carbamate]: in series [1], the “YFM % Control (or Mortality) rating” value was “A (80-100)”. Besides, the mortality at 50 µg/cm2 in series [2] and in series [3] was 50 to 100% each time.

For `CC(C)c1ccccc1N1C(=O)CS/C1=N\C(=O)Nc1ccc(N/N=C/c2ccc(OC(F)(F)F)cc2)cc1` [Compound A54, 1-((Z)-3-(2-isopropylphenyl)-4-oxothiazolidin-2-ylidene)-3-(4-(2-((E)-4-(trifluoromethoxy)benzylidene)hydrazinyl)phenyl)urea], the “YFM % Control (or Mortality) rating” value in series [1] is “A (80-100)”. In addition, the mortality at 50 µg/cm2 in series [2] and in series [3] was 50 to 100% throughout.

For `Cc1ccc(C(C)C)c(N2C(=O)CS/C2=N\C(=O)Nc2ccc(N/N=C/c3ccc(OC(F)(F)F)cc3)cc2)c1` [Compound A55, 1-((Z)-3-(2-Isopropyl-5-methylphenyl)-4-oxothiazolidin-2-ylidene)-3-(4-(2-((E)-4-(trifluoromethoxy)benzylidene)hydrazinyl)phenyl)urea], the “YFM % Control (or Mortality) rating” value in series [1] is “A (80-100)”. Further, the mortality at 50 µg/cm2 in series [2] and in series [3] was 50 to 100% each time.

The record behind these values is patent publication US11332452B2, “Pesticidal compositions and methods” (priority 2019, dated 2022).
